Among the test systems are A549 NSCLC; HT29 colon; K-562 leukemia; OVCAR-4 ovarian; SK-OV-3 ovarian; TK-10 renal; UACC-257 melanoma; UACC-62 melanoma; MALME-3M melanoma; NCI/ADR-RES ovarian.
What all share (test): NCI anticancer screen, dose series, 48 h

Experimental findings from PubChem BioAssay (NCI) are described below.

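Tested at 5 concentrations; 48 h exposure; 96-well plates; endpoints linearly interpolated, else capped at highest concentration. Abbreviation: GI50, concentration required for 50% inhibition of growth. TGI: total growth inhibition.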

On to `CCN1CCN(Cc2ccc(NC(=O)Nc3nc(-c4cc(OC)c(OC)c(OC)c4)cs3)cc2C(F)(F)F)CC1`, for which the GI50 in the experiment with A549 NSCLC is 1.96 µM; with HT29 colon, 0.39 µM; in the experiment on K-562 leukemia, 0.42 µM; in the experiment with OVCAR-4 ovarian, 1.47 µM; in the experiment with SK-OV-3 ovarian it was 1.71 µM; in the experiment with TK-10 renal, 1.95 µM. Also, the GI50 in the experiment on UACC-257 melanoma was 1.69 µM; with UACC-62 melanoma, 1.68 µM. The TGI was determined as 4.45 µM in the experiment with A549 NSCLC; 1.48 µM with HT29 colon; 1.92 µM with K-562 leukemia; 5.13 µM in the experiment with OVCAR-4 ovarian; 3.85 µM in the experiment on SK-OV-3 ovarian; 4.25 µM in the experiment with TK-10 renal. In addition, the TGI is 3.08 µM with UACC-257 melanoma and 3.18 µM in the experiment with UACC-62 melanoma.

Consider `CC1=C2CC[C@@]3(C)C(=CCC3O)C2(C)CCC1=O` (some centres not stated), for which the TGI with A549 NSCLC, in the experiment with HT29 colon, in the experiment on MALME-3M melanoma, with OVCAR-4 ovarian, with SK-OV-3 ovarian and in the experiment on TK-10 renal was more than 100 µM each time. The TGI in the experiment with UACC-257 melanoma and in the experiment with UACC-62 melanoma was more than 100 µM throughout.

For the molecule `CC(=O)OC(COc1ccc2c(c1)[n+]([O-])nc(N)[n+]2[O-])CN1CCCCC1` (configuration not stated), the TGI in the experiment on A549 NSCLC is 40.7 µM; in the experiment with HT29 colon it was 23.1 µM; in the experiment with K-562 leukemia it was 38.5 µM; in the experiment with MALME-3M melanoma, 24.2 µM; with NCI/ADR-RES ovarian, more than 100 µM; in the experiment on OVCAR-4 ovarian it was more than 100 µM. Further, the TGI in the experiment on TK-10 renal came out at 96.4 µM; with UACC-257 melanoma, 29.1 µM.

For the molecule `CCOC(=O)CCc1c(C)c2c(OC)cc(OC)cc2oc1=O`, the TGI in the experiment on A549 NSCLC, in the experiment with HT29 colon, with MALME-3M melanoma, in the experiment with OVCAR-4 ovarian, in the experiment with TK-10 renal and in the experiment on UACC-257 melanoma was more than 100 µM each time.

`CC(=O)Oc1ccc2c(=O)c(C(C)=O)coc2c1`: the TGI in the experiment on A549 NSCLC, with HT29 colon, in the experiment with K-562 leukemia, in the experiment with OVCAR-4 ovarian, in the experiment with TK-10 renal and in the experiment with UACC-257 melanoma was more than 100 µM in each case.

In the case of `O=C1NC(c2ccc3ccccc3c2)Nc2ccccc21` (configuration not stated), the TGI was more than 100 µM in the experiment with HT29 colon; 7.04 µM with K-562 leukemia; more than 100 µM with NCI/ADR-RES ovarian; more than 100 µM with OVCAR-4 ovarian; more than 100 µM with SK-OV-3 ovarian; more than 100 µM in the experiment on TK-10 renal. For the same molecule, the TGI in the experiment on UACC-257 melanoma and in the experiment on UACC-62 melanoma was more than 100 µM in each case.

`OC1CC(O)O[C@H](c2ccccc2)C1` (some centres not stated): the TGI in the experiment with A549 NSCLC, with HT29 colon, in the experiment with K-562 leukemia, with MALME-3M melanoma, in the experiment on OVCAR-4 ovarian and with TK-10 renal was more than 100 µM in each case. The TGI with UACC-257 melanoma and in the experiment on UACC-62 melanoma was more than 100 µM throughout.

With `N#CC1=C(N)N=C(N2CCOCC2)C(C#N)C12Nc1ccccc1S2` (configuration not stated), the GI50 is 33.3 µM in the experiment with A549 NSCLC; 26.7 µM in the experiment with K-562 leukemia; 39.3 µM in the experiment on NCI/ADR-RES ovarian; 24.1 µM with SK-OV-3 ovarian; 14 µM in the experiment with TK-10 renal; 28 µM with UACC-257 melanoma. Further, the GI50 in the experiment on UACC-62 melanoma is 18.8 µM. For the same molecule, the TGI with A549 NSCLC was more than 100 µM; in the experiment with K-562 leukemia, more than 100 µM; in the experiment with NCI/ADR-RES ovarian it was 75.9 µM; in the experiment on SK-OV-3 ovarian, more than 100 µM; in the experiment with TK-10 renal, 49.2 µM; with UACC-257 melanoma, 89.1 µM. This molecule also had a TGI in the experiment with UACC-62 melanoma of 40.9 µM.

As for `CCOC(=O)C(C(=O)OCC)=C1C=C(c2ccccc2)c2ccccc21`, the TGI in the experiment on A549 NSCLC, with HT29 colon, with K-562 leukemia, in the experiment on MALME-3M melanoma, in the experiment with OVCAR-4 ovarian and in the experiment with SK-OV-3 ovarian was more than 100 µM in each case. Further, the TGI in the experiment on TK-10 renal, in the experiment on UACC-257 melanoma and in the experiment on UACC-62 melanoma was more than 100 µM in each case.

For `CC(=O)[O-].CC(=O)[O-].O=C([CH-]C(=O)c1ccccc1)c1ccccc1.[Nd+3].[OH3+]`, the GI50 in the experiment on A549 NSCLC was 28.2 µM; with HT29 colon it was 20.9 µM; in the experiment on K-562 leukemia, 7.26 µM; with MALME-3M melanoma it was 26.1 µM; with OVCAR-4 ovarian it was 27 µM; in the experiment on SK-OV-3 ovarian, 27 µM. Also, the GI50 was 27 µM in the experiment with TK-10 renal, 17.9 µM in the experiment with UACC-257 melanoma and 16.5 µM in the experiment with UACC-62 melanoma. Besides, the TGI was 84.3 µM in the experiment on A549 NSCLC; 89.6 µM in the experiment on HT29 colon; more than 100 µM in the experiment with K-562 leukemia; 85.2 µM in the experiment with MALME-3M melanoma; more than 100 µM in the experiment with OVCAR-4 ovarian; 90.5 µM in the experiment on SK-OV-3 ovarian. For the same molecule, the TGI in the experiment with TK-10 renal was determined as 87.6 µM; in the experiment with UACC-257 melanoma it was 54.9 µM; with UACC-62 melanoma it was 48.6 µM.

On to `O=C(c1ccccc1)n1cc(/C=C/[N+](=O)[O-])c2ccccc21`, for which the TGI in the experiment with A549 NSCLC was more than 100 µM; in the experiment on HT29 colon, more than 100 µM; with K-562 leukemia, 47.7 µM; in the experiment on MALME-3M melanoma, 96.7 µM; in the experiment on OVCAR-4 ovarian, 77.3 µM; with SK-OV-3 ovarian, more than 100 µM. For the same molecule, the TGI in the experiment with TK-10 renal is more than 100 µM; in the experiment with UACC-257 melanoma, 47.3 µM; in the experiment with UACC-62 melanoma, 36.9 µM.

Take `CC(=O)OCc1nnn2c1C(OC(C)=O)CC2` (configuration not stated): the TGI in the experiment on A549 NSCLC, in the experiment on HT29 colon, in the experiment with K-562 leukemia, in the experiment with MALME-3M melanoma, in the experiment on OVCAR-4 ovarian and in the experiment with SK-OV-3 ovarian was more than 100 µM each time. The TGI with TK-10 renal, in the experiment with UACC-257 melanoma and in the experiment on UACC-62 melanoma was more than 100 µM each time.

In the case of `C[C@@H](NC1CCCC[C@@H]1O)c1ccccc1` (some centres not stated), the TGI with A549 NSCLC, in the experiment on HT29 colon, in the experiment with K-562 leukemia, with MALME-3M melanoma, in the experiment with OVCAR-4 ovarian and in the experiment on SK-OV-3 ovarian was more than 100 µM throughout. For the same molecule, the TGI in the experiment on TK-10 renal, in the experiment with UACC-257 melanoma and with UACC-62 melanoma was more than 100 µM throughout.

For the molecule `CCOC(=O)C#Cc1cccc(C#CC(=O)OCC)c1`, the TGI in the experiment on A549 NSCLC worked out at 16.6 µM; with HT29 colon it was 9.07 µM; with MALME-3M melanoma it was 12.1 µM; with NCI/ADR-RES ovarian, 14.6 µM; in the experiment with OVCAR-4 ovarian, 7.59 µM; in the experiment with SK-OV-3 ovarian, 19.5 µM. Besides, the TGI with TK-10 renal came out at 10.6 µM; in the experiment on UACC-257 melanoma it was 24.2 µM; in the experiment on UACC-62 melanoma it was 9.53 µM.
